Measurements from patent US10005818B2, “Derivative peptide compounds and methods of use” (REALTA HOLDINGS, LLC, priority 2010, dated 2018).
Square brackets hold non-standard residues; d marks the D form. Peptide text beside a SMILES is read from it. Sar = CNCC(=O)O

How the values were obtained:
[1] = Solubility in water; type: physicochemical
[2] = tested on: complement activation in factor B-depleted human sera; type: biochemical
Description: Peptides were diluted to 0.77 mM in factor B-depleted human sera (Complement Technologies, Inc.) and incubated for 1 hour at 37° C. These peptides were then diluted with GVBS^++ to equal 2.5/s serum, of which 0.25 ml was combined with 0.4 ml of GVBS^++ and 0.1 ml of sensitized sheep red blood cells (RBCs) and again incubated for 1 hour at 37° C. The procedure was stopped by the addition of 4.0 ml of GVBS^−−, centrifuged for 5 minutes at 1,620×g, and the absorbance of the supernatants was read at 412 nm in a spectrophotometer. The percent lysis of each sample was standardized to that of the serum only control.
The final concentration of peptide in factor B-depleted serum was 0.77 mM. Each peptide was evaluated in triplicate and the mean values are reported. […] In the hemolytic assay, soluble peptides are standardized to water and insoluble peptides standardized to DMSO.
Polar Assortant peptides were serially diluted in undiluted factor B-depleted human sera (Complement Technologies, Inc.) and incubated for 1 hour at 37° C. Water, GVBS^++ and DMSO were included as controls. These peptides were then diluted with GVBS^++ to equal 2.5/s serum, of which 0.25 ml was combined with 0.4 ml of GVBS^++ and 0.1 ml of sensitized sheep red blood cells (RBCs) and again incubated for 1 hour at 37° C. The procedure was stopped by the addition of 4.0 ml of GVBS^−−, centrifuged for 5 minutes at 1,620×g, and the absorbance of the supernatants was read at 412 nm in a spectrophotometer. The percent lysis of each sample was standardized to that of the serum only control.
The final concentration of peptide in factor B-depleted serum was 0.77 mM. […] In the hemolytic assay, soluble peptides were standardized to water and insoluble peptides standardized to DMSO.
The final concentration of peptide in factor B-depleted serum was 0.77 mM. […] In the hemolytic assay, soluble peptides are standardized to water and insoluble peptides standardized to DMSO.

[3] = Table 7, PEGylated and sarcosine/alanine substitution peptides
[4] = Table 5, sarcosine substitution peptides

Row | SMILES | Hemolysis (%) [2] [%] | Solubility in water ([1]; Table 6, PEGylated PA peptides) | also measured
1 | CC[C@H](C)[C@H](N)C(=O)N[C@@H](C)C(=O)N[C@@H](CC(C)C)C(=O)N[C@H](C(=O)N[C@@H](CC(C)C)C(=O)N[C@@H](C)C(=O)N1CCC[C@H]1C(=O)N[C@H](C(=O)N(C)CC(=O)N[C@@H](CS)C(=O)N[C@@H](CCC(N)=O)C(=O)N[C@@H](C)C(=O)N[C@@H](CCCNC(=N)N)C(=O)N[C@@H](C)C(=O)N[C@@H](C)C(=O)O)[C@@H](C)CC)[C@@H](C)CC [Peptide E6AE12AC9Sar] (H-IALILAPI[Sar]CQARAA-OH) | 2.99 | – | Solubility in water [1, 3]: No
2 | CC[C@H](C)[C@H](NC(=O)[C@H](CC(C)C)NC(=O)[C@H](C)NC(=O)CNC)C(=O)N[C@@H](CC(C)C)C(=O)N[C@@H](CCC(=O)O)C(=O)N1CCC[C@H]1C(=O)N[C@H](C(=O)N[C@@H](CS)C(=O)N[C@@H](CS)C(=O)N[C@@H](CCC(N)=O)C(=O)N[C@@H](CCC(=O)O)C(=O)N[C@@H](CCCNC(=N)N)C(=O)N[C@@H](C)C(=O)N[C@@H](C)C(=O)O)[C@@H](C)CC [PA-I1Sar] | 84.49 | – | Solubility in water [1, 4]: No
3 | CC[C@H](C)[C@H](N)C(=O)N[C@@H](C)C(=O)N[C@@H](CC(C)C)C(=O)N[C@H](C(=O)N[C@@H](CC(C)C)C(=O)N[C@@H](CCC(=O)O)C(=O)N1CCC[C@H]1C(=O)N[C@H](C(=O)N[C@@H](CS)C(=O)N[C@@H](CS)C(=O)N[C@@H](CCC(N)=O)C(=O)N[C@@H](CCC(=O)O)C(=O)N(C)CC(=O)N[C@@H](C)C(=O)N[C@@H](C)C(=O)O)[C@@H](C)CC)[C@@H](C)CC [PA-R13Sar] | 3.42 | – | Solubility in water [1, 4]: No
4 | CC[C@H](C)[C@H](N)C(=O)N[C@@H](C)C(=O)N[C@@H](CC(C)C)C(=O)N[C@H](C(=O)N[C@@H](CC(C)C)C(=O)N[C@@H](CCC(=O)O)C(=O)N(C)CC(=O)N[C@H](C(=O)N[C@@H](CS)C(=O)N[C@@H](CS)C(=O)N[C@@H](CCC(N)=O)C(=O)N[C@@H](CCC(=O)O)C(=O)N[C@@H](CCCNC(=N)N)C(=O)N[C@@H](C)C(=O)N[C@@H](C)C(=O)O)[C@@H](C)CC)[C@@H](C)CC [PA-P7Sar] (H-IALILE[Sar]ICCQERAA-OH; N-terminus and C-terminus assumed) | 3.01 | – | solubility in water / aqueous solutions [1]: water soluble; Solubility in water [1, 4]: Yes
5 | CC[C@H](C)[C@H](N)C(=O)N[C@@H](C)C(=O)N[C@@H](CC(C)C)C(=O)N[C@H](C(=O)N[C@@H](CC(C)C)C(=O)N[C@@H](CCC(=O)O)C(=O)N1CCC[C@H]1C(=O)N[C@H](C(=O)N(C)CC(=O)N[C@@H](CS)C(=O)N(C)CC(=O)N[C@@H](CCC(=O)O)C(=O)N[C@@H](CCCNC(=N)N)C(=O)N[C@@H](C)C(=O)N[C@@H](C)C(=O)O)[C@@H](C)CC)[C@@H](C)CC [Peptide Q11SarC9Sar] (H-IALILEPI[Sar]C[Sar]ERAA-OH) | 15.42 | – | Solubility in water [1, 3]: Yes
6 | CC[C@H](C)[C@H](N)C(=O)N[C@@H](C)C(=O)N[C@@H](CC(C)C)C(=O)N[C@H](C(=O)N[C@@H](CC(C)C)C(=O)N[C@@H](CCC(=O)O)C(=O)N1CCC[C@H]1C(=O)N[C@H](C(=O)N[C@@H](CS)C(=O)N[C@@H](CS)C(=O)N[C@@H](CCC(N)=O)C(=O)N[C@@H](CCC(=O)O)C(=O)N[C@@H](CCCNC(=N)N)C(=O)N[C@@H](C)C(=O)N[C@@H](C)C(=O)NCCOCCOCCOCCOCCOCCOCCC(=O)O)[C@@H](C)CC)[C@@H](C)CC [PA-dPEG06] | – | No | –
7 | CC[C@H](C)[C@H](N)C(=O)N[C@@H](C)C(=O)N[C@@H](CC(C)C)C(=O)N[C@H](C(=O)N[C@@H](CC(C)C)C(=O)N[C@@H](CCC(=O)O)C(=O)N1CCC[C@H]1C(=O)N[C@H](C(=O)N(C)CC(=O)N[C@@H](CS)C(=O)N[C@@H](CCC(N)=O)C(=O)N[C@@H](CCC(=O)O)C(=O)N[C@@H](CCCNC(=N)N)C(=O)N(C)CC(=O)N[C@@H](C)C(=O)O)[C@@H](C)CC)[C@@H](C)CC [Peptide A14SarC9Sar] (H-IALILEPI[Sar]CQER[Sar]A-OH) | 14.73 | – | Solubility in water [1, 3]: No
8 | CC[C@H](C)[C@H](N)C(=O)N[C@@H](C)C(=O)N[C@@H](CC(C)C)C(=O)N[C@H](C(=O)N[C@@H](CC(C)C)C(=O)N[C@@H](CCC(=O)O)C(=O)N1CCC[C@H]1C(=O)N[C@H](C(=O)N[C@@H](CS)C(=O)N[C@@H](CS)C(=O)N[C@@H](CCC(N)=O)C(=O)N[C@@H](CCC(=O)O)C(=O)N[C@@H](CCCNC(=N)N)C(=O)N[C@@H](C)C(=O)N[C@@H](C)C(=O)NCCOCCOCCC(=O)O)[C@@H](C)CC)[C@@H](C)CC [PA-dPEG02] | – | Yes | –
9 | CC[C@H](C)[C@H](N)C(=O)N[C@@H](C)C(=O)N[C@@H](CC(C)C)C(=O)N[C@H](C(=O)N[C@@H](CC(C)C)C(=O)N[C@@H](CCC(=O)O)C(=O)N1CCC[C@H]1C(=O)N[C@H](C(=O)N[C@@H](CS)C(=O)N[C@@H](CS)C(=O)N[C@@H](CCC(N)=O)C(=O)N[C@@H](CCC(=O)O)C(=O)N[C@@H](CCCNC(=N)N)C(=O)N[C@@H](C)C(=O)N[C@@H](C)C(=O)NCCOCCOCCOCCOCCOCCOCCOCCOCCOCCOCCOCCOCCC(=O)O)[C@@H](C)CC)[C@@H](C)CC [PA-dPEG12] | – | Yes | –
10 | CC[C@H](C)[C@H](N)C(=O)N[C@@H](C)C(=O)N[C@@H](CC(C)C)C(=O)N[C@H](C(=O)N[C@@H](CC(C)C)C(=O)N[C@@H](CCC(=O)O)C(=O)N1CCC[C@H]1C(=O)N[C@H](C(=O)N[C@@H](CS)C(=O)N[C@@H](CS)C(=O)N[C@@H](CCC(N)=O)C(=O)N[C@@H](CCC(=O)O)C(=O)N[C@@H](CCCNC(=N)N)C(=O)N[C@@H](C)C(=O)N[C@@H](C)C(=O)NCCOCCOCCOCCC(=O)O)[C@@H](C)CC)[C@@H](C)CC [PA-dPEG03] | – | Yes | –
11 | CC[C@H](C)[C@H](N)C(=O)N[C@@H](C)C(=O)N[C@@H](CC(C)C)C(=O)N[C@H](C(=O)N[C@@H](CC(C)C)C(=O)N[C@@H](CCC(=O)O)C(=O)N1CCC[C@H]1C(=O)N[C@H](C(=O)N[C@@H](CS)C(=O)N[C@@H](CS)C(=O)N[C@@H](CCC(N)=O)C(=O)N[C@@H](CCC(=O)O)C(=O)N[C@@H](CCCNC(=N)N)C(=O)N[C@@H](C)C(=O)N[C@@H](C)C(=O)O)[C@@H](C)CC)[C@@H](C)CC [PA] | – | – | solubility in water / aqueous solutions [1]: low solubility; Solubility in water [1, 4]: No
12 | CC[C@H](C)[C@H](N)C(=O)N[C@@H](C)C(=O)N[C@@H](CC(C)C)C(=O)N[C@H](C(=O)N[C@@H](CC(C)C)C(=O)N[C@@H](CCC(=O)O)C(=O)N1CCC[C@H]1C(=O)N[C@H](C(=O)N[C@@H](CS)C(=O)N[C@@H](CS)C(=O)N[C@@H](CCC(N)=O)C(=O)N[C@@H](CCC(=O)O)C(=O)N[C@@H](CCCNC(=N)N)C(=O)N[C@@H](C)C(=O)N[C@@H](C)C(=O)NCCOCCOCCOCCOCCOCCOCCOCCOCCOCCOCCOCCOCCOCCOCCOCCOCCC(=O)O)[C@@H](C)CC)[C@@H](C)CC [PA-dPEG16] | – | Yes | –
13 | CC[C@H](C)[C@H](N)C(=O)N[C@@H](C)C(=O)N[C@@H](CC(C)C)C(=O)N[C@H](C(=O)N[C@@H](CC(C)C)C(=O)N[C@@H](CCC(=O)O)C(=O)N1CCC[C@H]1C(=O)N[C@H](C(=O)N[C@@H](CS)C(=O)N[C@@H](CS)C(=O)N[C@@H](CCC(N)=O)C(=O)N[C@@H](CCC(=O)O)C(=O)N[C@@H](CCCNC(=N)N)C(=O)N[C@@H](C)C(=O)N[C@@H](C)C(=O)NCCOCCOCCOCCOCCOCCOCCOCCOCCOCCOCCOCCOCCOCCOCCOCCOCCOCCOCCOCCOCCC(=O)O)[C@@H](C)CC)[C@@H](C)CC [PA-dPEG20] | – | Yes | –
14 | CC[C@H](C)[C@H](N)C(=O)N[C@@H](C)C(=O)N[C@@H](CC(C)C)C(=O)N[C@H](C(=O)N[C@@H](CC(C)C)C(=O)N[C@@H](CCC(=O)O)C(=O)N1CCC[C@H]1C(=O)N[C@H](C(=O)N[C@@H](CS)C(=O)N[C@@H](CS)C(=O)N[C@@H](CCC(N)=O)C(=O)N[C@@H](CCC(=O)O)C(=O)N[C@@H](CCCNC(=N)N)C(=O)N[C@@H](C)C(=O)N[C@@H](C)C(=O)NCCOCCOCCOCCOCCOCCOCCOCCOCCC(=O)O)[C@@H](C)CC)[C@@H](C)CC [PA-dPEG08] | – | Yes | –
15 | CC[C@H](C)[C@H](N)C(=O)N[C@@H](C)C(=O)N[C@@H](CC(C)C)C(=O)N[C@H](C(=O)N[C@@H](CC(C)C)C(=O)N[C@@H](CCC(=O)O)C(=O)N1CCC[C@H]1C(=O)N[C@H](C(=O)N[C@@H](CS)C(=O)N[C@@H](CS)C(=O)N[C@@H](CCC(N)=O)C(=O)N[C@@H](CCC(=O)O)C(=O)N[C@@H](CCCNC(=N)N)C(=O)N[C@@H](C)C(=O)N[C@@H](C)C(=O)NCCOCCOCCOCCOCCC(=O)O)[C@@H](C)CC)[C@@H](C)CC [PA-dPEG04] | – | Yes | –
